{"source": "ChEMBL document CHEMBL1143868", "about": "“Synthesis, SAR, and Evaluation of 4-[2,4-Difluoro-5-(cyclopropylcarbamoyl)phenylamino]pyrrolo[2,1-f][1,2,4]triazine-based VEGFR-2 kinase inhibitors” (Bioorg Med Chem Lett, 2008)", "key": {"Liver microsomes": {"test_system": "Liver microsomes", "assay": "Metabolic stability in human liver microsomes per mg of protein at 3 uM after 10 mins", "type": "ADME, Microsome"}, "Liver": {"test_system": "Liver", "assay": "Metabolic stability in mouse liver microsomes per mg of protein at 3 uM after 10 mins", "type": "ADME, Microsome"}, "[1]": {"assay": "Cmax in mouse at 50 mg/kg, po", "type": "ADME, organism-based", "design": "dose 50 mg/kg, route oral", "conditions": "in vivo"}, "[2]": {"assay": "Tmax in mouse at 50 mg/kg, po", "type": "ADME, organism-based", "design": "dose 50 mg/kg, route oral", "conditions": "in vivo"}, "[3]": {"assay": "AUC (0 to 4 hrs) in mouse at 50 mg/kg, po", "type": "ADME, organism-based", "design": "time < 4 hr, dose 50 mg/kg, route oral", "conditions": "plasma"}}}
{"smiles": "CC(C)c1c(-c2nnc(OC3CCNCC3)o2)cn2ncnc(Nc3cc(C(=O)NC4CC4)c(F)cc3F)c12", "values": [{"measurement": "Stability", "setting": "Liver microsomes", "value": 0.023, "unit": "nmol/min/mg"}, {"measurement": "Stability", "setting": "Liver", "value": 0.007, "unit": "nmol/min/mg"}, {"measurement": "Cmax", "setting": "[1]", "value": 15, "unit": "µM"}, {"measurement": "Tmax", "setting": "[2]", "value": 4, "unit": "h"}, {"measurement": "AUC(0-t) at 4 h", "setting": "[3]", "value": 53.2, "unit": "µM·h"}]}
{"smiles": "CC(C)c1c(-c2nnc(NCCCCN)o2)cn2ncnc(Nc3cc(C(=O)NC4CC4)c(F)cc3F)c12", "values": [{"measurement": "Stability", "setting": "Liver microsomes", "value": 0.012, "unit": "nmol/min/mg"}, {"measurement": "Stability", "setting": "Liver", "value": 0, "unit": "nmol/min/mg"}, {"measurement": "Cmax", "setting": "[1]", "value": 0.1, "unit": "µM"}, {"measurement": "Tmax", "setting": "[2]", "value": 0.5, "unit": "h"}, {"measurement": "AUC(0-t) at 4 h", "setting": "[3]", "value": 0.2, "unit": "µM·h"}]}
{"smiles": "CC(C)c1c(-c2nnc(NCCCN(C)C)o2)cn2ncnc(Nc3cc(C(=O)NC4CC4)c(F)cc3F)c12", "values": [{"measurement": "Stability", "setting": "Liver microsomes", "value": 0.098, "unit": "nmol/min/mg"}, {"measurement": "Stability", "setting": "Liver", "value": 0.02, "unit": "nmol/min/mg"}, {"measurement": "Cmax", "setting": "[1]", "value": 8, "unit": "µM"}, {"measurement": "Tmax", "setting": "[2]", "value": 1, "unit": "h"}, {"measurement": "AUC(0-t) at 4 h", "setting": "[3]", "value": 21.7, "unit": "µM·h"}]}
